Measurements published in article PMC3094505 (Structure (London, England : 1993), 2011).
Read-outs that look alike come from different tables or passages of the source. Where no end group is shown, it is not given here.

Legend:
[1] = tested on: (Ca^2+)4-CaM (CaM1-148); format: binding, Paramecium; conditions: Nav1.2_1913-1938 in 6-fold excess, fluorescence anisotropy (Figure S6A)
[2] = tested on: CaM; conditions: ref Mori et al., 2000; cited from earlier work
[3] = target: T1, CaM76-148 (C-domain of CaM) (Paramecium tetraurelia, UniProt P07463); conditions: read-out: Kd, Ca^2+-saturated CaM76-148 binding, stoichiometric binding, only an upper limit for Kd, fluorescence anisotropy, pH 7.4, 22 °C
[4] = target: T2, CaM1-148 (full-length CaM) (Paramecium tetraurelia, UniProt P07463); experiment: Fluorescence anisotropy titration of Fl-Nav1.2IQp with CaM1-148; format: binding
[5] = target: T1, CaM76-148 (C-domain of CaM); experiment: biochemical
[6] = target: T2, CaM1-148 (full-length CaM); experiment: Equilibrium Ca2+ titration of CaM1-148 with Nav1.2IQp; format: biochemical
[7] = target: CaM1-80 (N-domain of CaM) (Paramecium tetraurelia, UniProt P07463); experiment: Equilibrium Ca2+ titration of CaM1-80 with Nav1.2IQp; format: biochemical; conditions: 6 μM CaM, 9 μM Nav1.2IQp, 22 °C; phenylalanine fluorescence
[8] = tested on: CaM; conditions: apo CaM compared with (Ca^2+)4-CaM
[9] = target: T2, CaM1-148 (full-length CaM); experiment: Ca2+ titration of apo CaM1-148:Nav1.2IQp complex monitored by 15N/1H-HSQC; format: biochemical; conditions: 15N/1H-HSQC titration, pH 6.8

Sequence: QRAYRRYLLKQKVKKVSSIYKKDKGK [Nav1.2BAA-1913-1938]
- simultaneous binding of Nav1.2IQp and Nav1.2_1913-1938 to (Ca^2+)4-CaM [1]: no evidence for simultaneous binding
- binding to (Ca^2+)4-CaM [2]: binds to (Ca^2+)4-CaM

Sequence: KRKQEEVSAIVIQRAYRRYLLKQKVKK [Fl-Nav1.2IQp]
- Kd [3]: ≤ 10 nM
- Kd [4]: ≤ 10 nM
- Kd [5]: ≤ 10 nM

Sequence: KRKQEEVSAIVIQRAYRRYLLKQKVKK [Nav1.2IQp]
- effect on Ca^2+ binding to sites I and II of CaM1-148 ([6]; 6 μM CaM, 9 μM Nav1.2IQp, 22 °C, phenylalanine fluorescence): little effect
- lowering of overall Ca^2+-binding affinity of CaM (free energy) ([6]; overall, CaM, with versus without Nav1.2IQp (Figure 2D)): 4.03 kcal/mol
- effect on Ca^2+ binding to sites I and II of CaM1-80 [7]: little effect
- relative affinity for apo CaM versus (Ca^2+)4-CaM [8]: higher affinity for apo CaM than (Ca^2+)4-CaM
- Ca^2+-binding affinity of sites I and II relative to sites III and IV of CaM1-148 bound to Nav1.2IQp [9]: slightly more favorable
